Measured values reported in paper PMC10300901, “Anticancer Activity and Mode of Action of Cu(II), Zn(II), and Mn(II) Complexes with 5-Chloro-2-N-(2-quinolylmethylene)aminophenol” (Molecules, 2023).
Read-outs that look alike come from different tables or passages of the source.

Legend:
MCF-7 = test: MTT cytotoxicity assay, MCF-7; type: cell-based
Protocol: (§2) The cytotoxicity of C1–C3 was determined using an MTT (3-(4,5-dimethylthiazol-2-yl)-2,5-diphenyltetrazolium bromide) assay on various cancer cells.

[1] = test system: cisplatin-resistant lung cancer (A549cisR) cells; test: MTT cytotoxicity assay, A549cisR; type: cell-based
Protocol: as §2

WI-38 = test: MTT cytotoxicity assay, WI-38; type: cell-based
Protocol: as §2

Hela = test: MTT cytotoxicity assay, Hela; type: cell-based
Protocol: as §2

A549 cells [2] = test: MTT cytotoxicity assay, A549
Protocol: as §2

[3] = Solubility in saline (0.9% sodium chloride solution); type: physicochemical
A549 cells [4] = test: Measurement of cellular ROS (H2DCF-DA, flow cytometry); type: cell-based; conditions: 4 μM and 8 μM, 24 h, vs control
Protocol: A change in the mitochondrial membrane potential results in mitochondrial dysfunction, which can induce reactive oxygen species (ROS) production. Based on the above information, we detected the ROS level in A549 cells using flow cytometry.
The ROS in A549 cells was analyzed by flow cytometry. After pretreatment with C1 (4 μM and 8 μM) for 24 h, the A549 cells were collected and stained with H2DCF-DA. After 20 min, the samples were measured using a flow cytometer.

A549 cells [5] = test: β-Galactosidase staining assay (senescence); type: cell-based; conditions: 24 h treatment
Protocol: Senescence is a permanent cellular stage involving cell cycle arrest, which is a potential strategy against cancer. We measured the impact of C1 on cell senescence in A549 cells using a β-galactosidase staining assay. The senescent cells were dyed blue by β-galactosidase.
A549 cells were cultured in 6-well plates and incubated overnight. After C1 treatment for 24 h, the cells were fixed. Then, 20 min later, the cells were washed and stained with β-galactosidase for 48 h. The stained cells were observed and captured using an inverted microscope.

CT-DNA = test: EB-DNA fluorescence-quenching assay; type: binding; conditions: C1 0−16 μM, 8 μM EB, 10 μM CT-DNA, pH 7.2 Tris–HCl
Protocol: Competitive studies with ethidium bromide (EB) have been widely used in fluorescence-quenching assays to evaluate the interaction between DNA and small molecules. Therefore, to further explore the binding property of C1 and DNA, fluorescence quenching was carried out to explore the interaction mode.
The fluorescence spectrum was performed to measure the interaction mode of C1 (0−16 μM) and EB-DNA (8 μM ethidium bromide added into 10 μM CT-DNA) in a pH 7.2 Tris–HCl buffer. The EB-DNA was excited at 510 nm, and for the emission spectra, the emission range was set to 530–750 nm. C1 was gradually added to the EB-DNA solution.

A549 cells [6] = test: Wound-healing assay (cell migration); type: cell-based; conditions: 2 μM and 4 μM, 24 h
Protocol: (§1) Cell migration is crucial to cancer development and metastasis; metastasis is a major cause of many cancer-related deaths. The migration is very usually assessed by the application of the wound-healing assay, which involves the creation of an artificial gap in a cancer cell monolayer, followed by observation of the area covered with migrating cells. Therefore, the inhibiting effect of C1 on cancer cell migration was evaluated using a wound-healing assay. […] In addition, the effect of C1 on A549 cell invasion was investigated using a transwell assay.
To evaluate the impact of C1 on cell migration, a wound-healing assay was carried out. A549 cells were seeded into 6-well plates and incubated overnight at 37 °C. C1 was dissolved in saline. Subsequently, scratch wounds were performed in the monolayer of cells using sterile toothpicks, and then the cells were treated with the Cu complex (2 μM and 4 μM). The cells were captured using an inverted microscope at 0 and 24 h.

A549 cells [7] = test: Comet assay (DNA damage); type: cell-based
Protocol: Excessive intracellular ROS can cause DNA damage and cell death. Next, a comet assay was performed to determine whether C1 caused DNA damage. Undamaged DNA cannot migrate, and fluorescence is only confined to the nucleus. In DNA-damaged cells, negatively charged DNA fragments are then released from the nucleus and migrate towards the anode. There was no comet-like cell observed in the control group. In comparison, C1-treated cells with longer tails (white arrows) were observed, and a higher percentage, indicating the existence of severe DNA fragmentation (Figure 7B).
The A549 cells were seed into 6-well plates and treated with C1. A mixture of 10 μL cell suspension and 70 μL low-melting-point agarose (1%) were placed on a glass microscope slide (pre-coated with 1% normal-melting-point agarose) and covered with coverslips. The cells were separate by gel electrophoresis, stained with PI, and captured using an inverted fluorescence microscope.

A549 cells [8] = test: Cell cycle analysis (PI, flow cytometry); type: cell-based; conditions: 48 h
Protocol: The influence of metal compounds on cell cycle arrest contributes to their anticancer activity. To determine the effect of C1 on the cell cycle, the distribution of the cell cycle of C1-treated A549 cells was detected using flow cytometry.
The A549 cells were seeded into 10 cm dishes and incubated overnight. Subsequently, the cells were treated with C1 (4 μM and 8 μM). After 48 h, the cells were collected, fixed with 75% ethanol overnight, stained with PI for 20 min, and measured by flow cytometry.

A549 cells [9] = test: Mitochondrial membrane potential (JC-1, flow cytometry); type: cell-based; conditions: C1 8 μM, 24 h
Protocol: Mitochondria play a key role in death signals through intrinsic and extrinsic apoptosis. Therefore, after exposure to C1, A549 cells were stained with a JC-1 probe to evaluate the mitochondrial membrane potential (ΔΨm) using flow cytometry.
Exponentially growing A549 cells were cultured in 6-well plates. Subsequently, C1 (4 μM and 8 μM) was exposed to the cells for 24 h. The cells were stained with JC-1 probe and analyzed by flow cytometry.

A549 tumor = test: In vivo antitumor experiment in mice bearing A549 tumors; parameters: species or system BALB/C nude mice; conditions: for Tumor growth inhibition rate: two weeks, mice bearing A549 tumors
Protocol: Based on these promising biological properties, the in vivo therapeutic efficacy of C1 was further investigated in mice bearing A549 tumors. […] Generally, body weight change is considered a key indicator of systemic toxicity.
In addition, TUNEL (terminal deoxynucleotidyl transferase dUTP nick end labeling) staining of tumor tissue sections was performed to examine the effect of C1 on apoptosis in vivo. […] Histological analyses were carried out using H&E (hematoxylin and eosin) staining to evaluate the toxicity of C1 for the major organ.
BALB/C nude mice (6–8 weeks old, 18–22 g) were purchased from Hunan SJA Laboratory Animal Co., Ltd. An amount of 200 μL of A549 cells (containing 2 × 10^6 cells) were subcutaneously injected into the left flank of the mice. The mice were randomly divided into 3 groups when the average tumor size reached 100 mm^3. Then, the mice were treated with saline and C1 (2.5 and 5 mg/kg) for two weeks. C1 was dissolved in saline. During the treatment, the tumor volume and body weight of mice were measured every two days. The major organs (heart, kidney, and liver) and tumor tissues were harvested and sliced for H&E staining and TUNEL staining, respectively.

A549 cells [10] = test: Transwell invasion assay; type: cell-based; conditions: 24 h
Protocol: as §1
The effect of C1 on tumor cell invasiveness was assessed by transwell assay. In brief, the transwell chamber was pre-coated with 70 μL diluted matrigel for 8 h at 37 °C. A549 cells were seeded to the upper chamber, and then C1 was added to the chamber. After 24 h of incubation, the chambers were washed, stained with 0.5% crystal violet for 20 min, and captured using an inverted microscope.

A549 cells [11] = test: Cell apoptosis analysis (Annexin V/PI, flow cytometry); type: cell-based; conditions: 24 h, control 4.0%
Protocol: Then, the effect of C1 on A549 cells apoptosis was stained with Annexin V/PI and analyzed using flow cytometry.
The A549 cells were placed in 6-well plates and incubated overnight. The cells were treated with C1 (4 μM and 8 μM) and incubated for 24 h. Subsequently, the cells were harvested and stained with Annexin V/PI for 20 min. The samples were detected by flow cytometry.

Q: Which results are given for `N.N.[Cl][Pt][Cl]` [Cisplatin, reference compound]?
A: IC50 (MCF-7): 14.5 ± 0.48 µM; IC50 [1]: > 40 µM; IC50 (WI-38): 9.61 ± 0.58 µM; IC50 (Hela): 15.3 ± 0.51 µM; IC50 (A549 cells [2]; read-out: IC50 A549, MTT assay): 12.5 ± 0.45 µM

Q: With `O.O.[Cl][Mn][O]c1cc(Cl)ccc1N=Cc1ccc2ccccc2n1` [C3, 5-chloro-2-N-(2-quinolylmethylene)aminophenoxide-Mn(II)-chloride/dihydrate] as the compound, how does the IC50 (MCF-7) read?
A: > 40 µM

Q: What about the IC50 [1] of the same compound?
A: > 40 µM

Q: And the IC50 (WI-38)?
A: > 40 µM

Q: What about the IC50 (Hela) of the same compound?
A: > 40 µM

Q: What about the Solubility in saline [3] of the same compound?
A: ≥ 0.8 mg/mL

Q: What about the IC50 (A549 cells [2]; read-out: IC50 A549, MTT assay) of the same compound?
A: 33.6 ± 0.98 µM

Q: Which results are given for “5-chloro-2-N-(2-quinolylmethylene)aminophenoxide-Zn(II)-chloride/pyridine [C2]”?
A: IC50 (MCF-7): 23.6 ± 0.98 µM; IC50 [1]: 29.3 ± 0.85 µM; IC50 (WI-38): 34 ± 1.06 µM; IC50 (Hela): 22.8 ± 0.8 µM; IC50 (A549 cells [2]; read-out: IC50 A549, MTT assay): 18.3 ± 0.52 µM

Q: With `[Cl][Cu][O]c1cc(Cl)ccc1N=Cc1ccc2ccccc2n1` [C1, 5-chloro-2-N-(2-quinolylmethylene)aminophenoxide-Cu(II)-chloride] as the compound, how does the “Intracellular ROS level” value (A549 cells [4]) read?
A: significantly increased

Q: And the “Cell senescence (β-galactosidase staining)” value (A549 cells [5])?
A: can induce A549 cell senescence

Q: And the IC50 (MCF-7)?
A: 5.3 ± 0.35 µM

Q: What about the “DNA binding mode (EB displacement)” value (CT-DNA) of the same compound?
A: binds to DNA in an intercalative binding mode

Q: And the “Effect on migration of A549 cells” value (A549 cells [6])?
A: strongly inhibited the migration ability of A549 cells

Q: What about the “DNA damage (comet assay)” value (A549 cells [7]) of the same compound?
A: induces DNA damage

Q: What about the “Percentage of cells in G0/G1 phase” value (A549 cells [8]; C1 4 μM) of the same compound?
A: 48.85%

Q: What about the “Percentage of cells in G2/M phase” value (A549 cells [8]; C1 4 μM) of the same compound?
A: 7.98%

Q: And the “Percentage of cells in S phase” value (A549 cells [8]; C1 4 μM)?
A: 43.17%

Q: And the “Percentage of cells in G0/G1 phase” value (A549 cells [8]; C1 8 μM)?
A: 54.45%

Q: What about the “Percentage of cells in G2/M phase” value (A549 cells [8]; C1 8 μM) of the same compound?
A: 9.96%

Q: And the “Percentage of cells in S phase” value (A549 cells [8]; C1 8 μM)?
A: 35.59%

Q: What about the “ΔΨm of A549 cells reduced by (JC-1)” value (A549 cells [9]) of the same compound?
A: 23.7%

Q: And the “Tumor growth inhibition rate” value (A549 tumor; C1 2.5 mg/kg)?
A: 46.3%

Q: What about the “Tumor growth inhibition rate” value (A549 tumor; C1 5 mg/kg) of the same compound?
A: 63.5%

Q: And the Body weight change (A549 tumor; C1 2.5 and 5 mg/kg, vs control group)?
A: no apparent weight loss

Q: What about the “Histology of heart, liver, and kidney (H&E staining)” value (A549 tumor; after treatment with C1) of the same compound?
A: no pathological alterations or other abnormalities

Q: What about the “Apoptosis in tumor tissue (TUNEL staining)” value (A549 tumor; tumor tissue sections) of the same compound?
A: notable cell apoptosis

Q: What about the IC50 [1] of the same compound?
A: 6.79 ± 0.38 µM

Q: And the IC50 (WI-38)?
A: 10.2 ± 0.43 µM

Q: What about the IC50 (Hela) of the same compound?
A: 6.31 ± 0.32 µM

Q: What about the Solubility in saline [3] of the same compound?
A: ≥ 1.9 mg/mL

Q: What about the “Effect on invasion of A549 cells” value (A549 cells [10]) of the same compound?
A: could inhibit the invasion abilities of A549 cells

Q: What about the “Population of apoptotic cells” value (A549 cells [11]; C1 4 μM) of the same compound?
A: 15.0%

Q: And the “Population of apoptotic cells” value (A549 cells [11]; C1 8 μM)?
A: 23.8%

Q: And the IC50 (A549 cells [2]; read-out: IC50 A549, MTT assay)?
A: 3.93 ± 0.28 µM

Q: For `Oc1cc(Cl)ccc1/N=C/c1ccc2ccccc2n1` [L, 5-chloro-2-N-(2-quinolylmethylene) aminophenol], which IC50 (MCF-7; Homo sapiens, MCF7) is on record?
A: > 40 µM

Q: And the IC50 [1]?
A: > 40 µM

Q: What about the IC50 (WI-38; Homo sapiens, WI-38) of the same compound?
A: > 40 µM

Q: What about the IC50 (Hela; Homo sapiens, HeLa) of the same compound?
A: > 40 µM

Q: What about the IC50 (A549 cells [2]; Homo sapiens, A549, read-out: IC50 A549) of the same compound?
A: > 40 µM
